Ki data for eleven compounds are collected here from ChEMBL document CHEMBL3232796, “Synthesis and carbonic anhydrase I, II, IX and XII inhibition studies of 4-N,N-disubstituted sulfanilamides incorporating 4,4,4-trifluoro-3-oxo-but-1-enyl, phenacylthiourea and imidazol-2(3H)-one/thione moieties” (Bioorg Med Chem Lett, 2014).

The Ki is the dissociation constant of the complex between target and ligand, obtained from inhibition or displacement. Read a low Ki as a stronger hold on the target.

The structures appear in SMILES notation.

This test has as its target Carbonic anhydrase 9 (Homo sapiens, UniProt Q16790).

Description: Inhibition of human recombinant transmembrane tumor associated carbonic anhydrase-9 incubated for 15 mins prior to testing by stopped-flow CO2 hydrase assay

`NS(=O)(=O)c1ccc(N(/C=C/C(=O)C(F)(F)F)Cc2ccccc2)cc1`: the affinity, expressed as Ki, was 39 nM.

Regarding `NS(=O)(=O)c1ccc(N(/C=C/C(=O)C(F)(F)F)Cc2ccc(Cl)cc2)cc1`, the affinity corresponds to a Ki of 33 nM. This Ki and that of the compound before are within 1.5-fold of each other.

In the case of `NS(=O)(=O)c1ccc(N(/C=C/C(=O)C(F)(F)F)CC(=O)c2ccccc2)cc1`, affinity was put at a Ki of 9.5 nM. Against the preceding compound, the Ki is about 3.5-fold lower.

For `NS(=O)(=O)c1ccc(N(/C=C/C(=O)C(F)(F)F)CC(=O)c2ccc(Cl)cc2)cc1`, the Ki was 17 nM.

Take `NS(=O)(=O)c1ccc(N(/C=C/C(=O)C(F)(F)F)CC(=O)c2ccc(F)cc2)cc1`: the inhibition constant (Ki) is 13 nM. The Ki values of the last two compounds are within 1.5-fold of each other.

`Cc1ccc(C(=O)CN(/C=C/C(=O)C(F)(F)F)c2ccc(S(N)(=O)=O)cc2)cc1` came in with a Ki of 18 nM.

For `CCOC(=O)NC(=S)N(CC(=O)c1ccc(Cl)cc1)c1ccc(S(N)(=O)=O)cc1`, the Ki stood at 25 nM.

`NS(=O)(=O)c1ccc(-n2cc(-c3ccccc3)[nH]c2=O)cc1` returned a Ki of 34 nM.

`NS(=O)(=O)c1ccc(-n2cc(-c3ccc(F)cc3)[nH]c2=O)cc1` displayed a Ki of 25 nM.

For the compound `NS(=O)(=O)c1ccc(-n2cc(-c3ccccc3)[nH]c2=S)cc1`, the affinity, expressed as Ki, was 13 nM.

Consider `NS(=O)(=O)c1ccc(-n2cc(-c3ccc(F)cc3)[nH]c2=S)cc1`, for which the Ki amounted to 37 nM. This Ki is about 2.8-fold higher than that of the compound before.
